# Results published in publication PMC8398451, “Molecular Engineering of Curcumin, an Active Constituent of Curcuma longa L. (Turmeric) of the Family Zingiberaceae with Improved Antiproliferative Activity” (Plants, 2021).
# Columns and labels:
# SR = assay: NCI antiproliferative SRB assay, Leukemia panel; assay type: cell-based, Human; details: 5-dose 0.01-100 µM
# HCT-116 = assay: NCI antiproliferative SRB assay, Colon Cancer panel; assay type: cell-based, Human
# NCI-H226 = assay: NCI antiproliferative SRB assay, Non-Small Cell Lung Cancer panel; assay type: cell-based, Human
# SNB-19 = assay: NCI antiproliferative SRB assay, CNS Cancer panel; assay type: cell-based, Human
# EGFR = target: T1, EGFR (Homo sapiens, UniProt P00533); assay: Spectrophotometric assay for EGFR tyrosine kinase inhibition in A431 cells; assay type: cell-based; details: absorbance at 540 nm
# T1 construct: tested for anti-EGFR activity in human A431 cells, which express high levels of EGFR protein; endogenous in cells; host or cells: human A431 cells
# T1 sequence (P00533 25-1210): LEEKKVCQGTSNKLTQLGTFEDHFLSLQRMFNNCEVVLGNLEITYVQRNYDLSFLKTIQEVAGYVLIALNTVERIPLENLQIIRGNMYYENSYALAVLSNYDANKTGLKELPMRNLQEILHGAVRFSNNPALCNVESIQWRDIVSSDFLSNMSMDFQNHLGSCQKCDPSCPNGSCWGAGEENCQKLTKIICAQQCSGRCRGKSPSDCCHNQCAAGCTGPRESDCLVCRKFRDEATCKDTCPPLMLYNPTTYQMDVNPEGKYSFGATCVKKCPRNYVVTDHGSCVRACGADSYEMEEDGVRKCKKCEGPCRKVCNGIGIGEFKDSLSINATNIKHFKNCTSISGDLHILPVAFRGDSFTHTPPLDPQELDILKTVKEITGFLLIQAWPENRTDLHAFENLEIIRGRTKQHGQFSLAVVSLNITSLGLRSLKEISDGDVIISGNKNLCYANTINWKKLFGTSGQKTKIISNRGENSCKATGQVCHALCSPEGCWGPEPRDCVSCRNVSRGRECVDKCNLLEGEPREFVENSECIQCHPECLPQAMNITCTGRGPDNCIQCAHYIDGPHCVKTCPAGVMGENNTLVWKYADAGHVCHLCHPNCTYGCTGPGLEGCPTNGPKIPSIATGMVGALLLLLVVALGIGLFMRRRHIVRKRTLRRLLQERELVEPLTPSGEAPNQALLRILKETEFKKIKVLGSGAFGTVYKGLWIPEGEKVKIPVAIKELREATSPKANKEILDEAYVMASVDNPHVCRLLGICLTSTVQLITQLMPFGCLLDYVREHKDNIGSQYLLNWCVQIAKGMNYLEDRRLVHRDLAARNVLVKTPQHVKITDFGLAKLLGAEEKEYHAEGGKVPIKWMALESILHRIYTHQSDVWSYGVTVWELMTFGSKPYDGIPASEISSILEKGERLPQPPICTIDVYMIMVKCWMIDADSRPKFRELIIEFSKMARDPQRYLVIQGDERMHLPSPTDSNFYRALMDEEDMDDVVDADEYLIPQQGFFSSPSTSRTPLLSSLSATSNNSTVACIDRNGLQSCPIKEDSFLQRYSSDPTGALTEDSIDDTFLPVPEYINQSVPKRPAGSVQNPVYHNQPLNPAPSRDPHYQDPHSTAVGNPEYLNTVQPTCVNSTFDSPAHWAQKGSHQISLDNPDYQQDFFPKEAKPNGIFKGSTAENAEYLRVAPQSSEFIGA
# SK-MEL-2 = assay: NCI antiproliferative SRB assay, Melanoma panel; assay type: cell-based, Human
# SF-268 = assay: NCI antiproliferative SRB assay, CNS Cancer panel; assay type: cell-based, Human
# COLO 205 = assay: NCI antiproliferative SRB assay, Colon Cancer panel; assay type: cell-based, Human
# SNB-75 = assay: NCI antiproliferative SRB assay, CNS Cancer panel; assay type: cell-based, Human
# A498 = assay: NCI antiproliferative SRB assay, Renal Cancer panel; assay type: cell-based, Human
# OVCAR-8 = assay: NCI antiproliferative SRB assay, Ovarian Cancer panel; assay type: cell-based, Human
# NCI-H322M = assay: NCI antiproliferative SRB assay, Non-Small Cell Lung Cancer panel; assay type: cell-based, Human
# ACHN = assay: NCI antiproliferative SRB assay, Renal Cancer panel; assay type: cell-based, Human
# [1] = test system: Breast Cancer cell line panel; assay: NCI antiproliferative assay, panel summary; assay type: cell-based, Human
# NCI/ADR-RES = assay: NCI antiproliferative SRB assay, Ovarian Cancer panel; assay type: cell-based, Human
# BT-549 = assay: NCI antiproliferative SRB assay, Breast Cancer panel; assay type: cell-based, Human
# EKVX = assay: NCI antiproliferative SRB assay, Non-Small Cell Lung Cancer panel; assay type: cell-based, Human
# HL-60(TB) = assay: cells; assay type: cell-based
# RXF 393 = assay: NCI antiproliferative SRB assay, Renal Cancer panel; assay type: cell-based, Human
# HOP-92 = assay: NCI antiproliferative SRB assay, Non-Small Cell Lung Cancer panel; assay type: cell-based
# KM12 = assay: NCI antiproliferative SRB assay, Colon Cancer panel; assay type: cell-based, Human
# NCI-H522 = assay: NCI antiproliferative SRB assay, Non-Small Cell Lung Cancer panel; assay type: cell-based, Human
# OVCAR-4 = assay: NCI antiproliferative SRB assay, Ovarian Cancer panel; assay type: cell-based, Human
# RPMI-8226 = assay: NCI antiproliferative SRB assay, Leukemia panel; assay type: cell-based, Human
# SF-295 = assay: NCI antiproliferative SRB assay, CNS Cancer panel; assay type: cell-based, Human
# [2] = Homo sapiens, 5-dose 0.01-100 µM
# [3] = Homo sapiens, 5-dose 0.01-100 µM, read-out: LC50 (the source's name)
smiles,measurement,setting,value
COc1ccc(NC(=O)n2nc(/C=C/c3ccc(O)c(OC)c3)cc2/C=C/c2ccc(O)c(OC)c2)cc1 [3b],TGI,SR,12.8 µM
same,GI50,SR; Homo sapiens,1.52 µM
same,CC50,"SR; Homo sapiens, read-out: LC50 (the source's name)",> 100 µM
same,TGI,HCT-116; 5-dose 0.01-100 µM,42.9 µM
same,GI50,HCT-116; [2],3.22 µM
same,CC50,HCT-116; [3],> 100 µM
same,%GI,HCT-116; one dose 10 µM,90.87%
same,GP (growth percent),HCT-116; one dose 10 µM,9.13
same,TGI,NCI-H226; 5-dose 0.01-100 µM,78.6 µM
same,GI50,NCI-H226; [2],10.7 µM
same,CC50,NCI-H226; [3],> 100 µM
same,%GI,NCI-H226; one dose 10 µM,12.85%
same,GP (growth percent),NCI-H226; one dose 10 µM,87.15
same,TGI,SNB-19; 5-dose 0.01-100 µM,86.7 µM
same,GI50,SNB-19; [2],5.28 µM
same,CC50,SNB-19; [3],> 100 µM
same,%GI,SNB-19; one dose 10 µM,61.15%
same,GP (growth percent),SNB-19; one dose 10 µM,38.85
same,IC50,EGFR,3.89 µM
same,TGI,SK-MEL-2; 5-dose 0.01-100 µM,18.1 µM
same,GI50,SK-MEL-2; [2],3.23 µM
same,CC50,SK-MEL-2; [3],> 100 µM
same,%GI,SK-MEL-2; one dose 10 µM,78.62%
same,GP (growth percent),SK-MEL-2; one dose 10 µM,21.38
same,TGI,SF-268; 5-dose 0.01-100 µM,36.4 µM
same,GI50,SF-268; [2],3.21 µM
same,CC50,SF-268; [3],> 100 µM
same,%GI,SF-268; one dose 10 µM,58.19%
same,GP (growth percent),SF-268; one dose 10 µM,41.81
same,TGI,COLO 205; 5-dose 0.01-100 µM,44.3 µM
same,GI50,COLO 205; [2],16.2 µM
same,CC50,COLO 205; [3],> 100 µM
same,%GI,COLO 205; one dose 10 µM,−6.58%
same,GP (growth percent),COLO 205; one dose 10 µM,106.58
same,TGI,SNB-75; 5-dose 0.01-100 µM,16.3 µM
same,GI50,SNB-75; [2],2.35 µM
same,CC50,SNB-75; [3],> 100 µM
same,%GI,SNB-75; one dose 10 µM,67.39%
same,GP (growth percent),SNB-75; one dose 10 µM,32.61
same,TGI,A498; 5-dose 0.01-100 µM,56.4 µM
same,GI50,A498; [2],17.2 µM
same,CC50,A498; [3],> 100 µM
same,%GI,A498; one dose 10 µM,17.53%
same,GP (growth percent),A498; one dose 10 µM,82.47
same,TGI,OVCAR-8; 5-dose 0.01-100 µM,59.9 µM
same,GI50,OVCAR-8; [2],5.32 µM
same,CC50,OVCAR-8; [3],> 100 µM
same,%GI,OVCAR-8; one dose 10 µM,67.21%
same,GP (growth percent),OVCAR-8; one dose 10 µM,32.79
same,TGI,NCI-H322M; 5-dose 0.01-100 µM,72.5 µM
same,GI50,NCI-H322M; [2],3.87 µM
same,CC50,NCI-H322M; [3],> 100 µM
same,%GI,NCI-H322M; one dose 10 µM,41.86%
same,GP (growth percent),NCI-H322M; one dose 10 µM,58.14
same,TGI,ACHN; 5-dose 0.01-100 µM,>100 µM
same,GI50,ACHN; [2],4.18 µM
same,CC50,ACHN; [3],> 100 µM
same,%GI,ACHN; one dose 10 µM,77.93%
same,GP (growth percent),ACHN; one dose 10 µM,26.03
same,Mean % GI,[1]; 10 µM,69.71%
same,Selectivity Ratio (MID a:MID b),[1]; 5-dose assay,1.19
same,GI50,"[1]; Homo sapiens, 5-dose assay, read-out: Sub Panel MID b (mean GI50 of panel)",4.12 µM
same,TGI,NCI/ADR-RES; 5-dose 0.01-100 µM,>100 µM
same,GI50,NCI/ADR-RES; [2],4.28 µM
same,CC50,NCI/ADR-RES; [3],> 100 µM
same,%GI,NCI/ADR-RES; one dose 10 µM,76.11%
same,GP (growth percent),NCI/ADR-RES; one dose 10 µM,23.89
same,TGI,BT-549; 5-dose 0.01-100 µM,29.5 µM
same,GI50,BT-549; [2],2.49 µM
same,CC50,BT-549; [3],> 100 µM
same,%GI,BT-549; one dose 10 µM,68.63%
same,GP (growth percent),BT-549; one dose 10 µM,31.37
same,TGI,EKVX; 5-dose 0.01-100 µM,83.7 µM
same,GI50,EKVX; [2],6.62 µM
same,CC50,EKVX; [3],> 100 µM
same,%GI,EKVX; one dose 10 µM,47.61%
same,GP (growth percent),EKVX; one dose 10 µM,52.39
same,TGI,HL-60(TB); 5-dose 0.01-100 µM,6.69 µM
same,GI50,HL-60(TB); [2],2.55 µM
same,CC50,HL-60(TB); [3],> 100 µM
same,%GI,HL-60(TB); one dose 10 µM,94.68%
same,GP (growth percent),HL-60(TB); one dose 10 µM,5.32
same,TGI,RXF 393; 5-dose 0.01-100 µM,8.87 µM
same,GI50,RXF 393; [2],3.02 µM
same,CC50,RXF 393; [3],> 100 µM
same,%GI,RXF 393; one dose 10 µM,76.99%
same,GP (growth percent),RXF 393; one dose 10 µM,23.01
same,TGI,HOP-92; 5-dose 0.01-100 µM,>100 µM
same,GI50,"HOP-92; Homo sapiens, 5-dose 0.01-100 µM, read-out: GI50",7.77 µM
same,CC50,HOP-92; [3],> 100 µM
same,%GI,HOP-92; one dose 10 µM,10.93%
same,GP (growth percent),HOP-92; one dose 10 µM,89.07
same,TGI,KM12; 5-dose 0.01-100 µM,20.7 µM
same,GI50,KM12; [2],3.19 µM
same,CC50,KM12; [3],> 100 µM
same,%GI,KM12; one dose 10 µM,82.11%
same,GP (growth percent),KM12; one dose 10 µM,17.89
same,TGI,NCI-H522; 5-dose 0.01-100 µM,12.7 µM
same,GI50,NCI-H522; [2],1.76 µM
same,CC50,NCI-H522; [3],> 100 µM
same,%GI,NCI-H522; one dose 10 µM,113.52%
same,GP (growth percent),NCI-H522; one dose 10 µM,−13.52
same,TGI,OVCAR-4; 5-dose 0.01-100 µM,90.7 µM
same,GI50,OVCAR-4; [2],5.72 µM
same,CC50,OVCAR-4; [3],> 100 µM
same,%GI,OVCAR-4; one dose 10 µM,48.49%
same,GP (growth percent),OVCAR-4; one dose 10 µM,51.51
same,TGI,RPMI-8226; 5-dose 0.01-100 µM,29.2 µM
same,GI50,RPMI-8226; [2],3.38 µM
same,CC50,RPMI-8226; [3],> 100 µM
same,%GI,RPMI-8226; one dose 10 µM,78.70%
same,GP (growth percent),RPMI-8226; one dose 10 µM,21.30
same,TGI,SF-295; 5-dose 0.01-100 µM,53.2 µM
same,GI50,SF-295; [2],6.25 µM
same,CC50,SF-295; [3],> 100 µM
same,%GI,SF-295; one dose 10 µM,48.38%
same,GP (growth percent),SF-295; one dose 10 µM,51.62
